According to US8415351B2 (priority 2007, dated 2013):

Legend:
[1] = molecular target: T1, HCV polymerase 1B (Δ21 NS5B, BK) (Hepatitis C virus genotype 1b, UniProt P26663); assay: biochemical
T1 construct: 20 to 50 nM Δ21 NS5B
Procedure, shortened: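 Δ21 NS5B (genotype 1b, BK […]) preincubated 15 min RT with inhibitor, 2 mM MnCl2, pH 7.4, 60–125 μM GTP; started with 20 μM CTP/ATP, 1 μM 3H-UTP, 5 nM template RNA, run 2–4 h RT. Spermine-precipitated RNA filter-captured, scintillation counted; IC50 from tight-binding (Morrison) fit.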

[2] = tested on: genotype 1a-H77 subgenomic replicon cell line; assay: microbe, parasite or virus in culture; type: cell-based, HCV; settings: Hepatitis C virus, read-out: EC50 1a
[3] = tested on: genotype 1b-Con1 subgenomic replicon cell line; assay: microbe, parasite or virus in culture; type: cell-based, HCV; settings: Hepatitis C virus, read-out: EC50 1b
[4] = molecular target: T2, HCV polymerase 1A (Δ21 NS5B, H77) (Hepatitis C virus genotype 1a, UniProt P27958); assay: biochemical; settings: IC50 1a
T2 construct: 20 to 50 nM Δ21 NS5B
Procedure, shortened: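 Radiometric assay with Δ21 NS5B (H77): 20 μM CTP, 20 μM ATP, 1 μM ^3H-UTP, 5 nM template RNA, 2–4 h at room temperature. RNA precipitated with spermine, filter-captured and counted. IC50 from non-linear fit of retained cpm vs inhibitor concentration (tight-binding equation).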

T1 sequence (P26663 2420-2989, stated change not applied): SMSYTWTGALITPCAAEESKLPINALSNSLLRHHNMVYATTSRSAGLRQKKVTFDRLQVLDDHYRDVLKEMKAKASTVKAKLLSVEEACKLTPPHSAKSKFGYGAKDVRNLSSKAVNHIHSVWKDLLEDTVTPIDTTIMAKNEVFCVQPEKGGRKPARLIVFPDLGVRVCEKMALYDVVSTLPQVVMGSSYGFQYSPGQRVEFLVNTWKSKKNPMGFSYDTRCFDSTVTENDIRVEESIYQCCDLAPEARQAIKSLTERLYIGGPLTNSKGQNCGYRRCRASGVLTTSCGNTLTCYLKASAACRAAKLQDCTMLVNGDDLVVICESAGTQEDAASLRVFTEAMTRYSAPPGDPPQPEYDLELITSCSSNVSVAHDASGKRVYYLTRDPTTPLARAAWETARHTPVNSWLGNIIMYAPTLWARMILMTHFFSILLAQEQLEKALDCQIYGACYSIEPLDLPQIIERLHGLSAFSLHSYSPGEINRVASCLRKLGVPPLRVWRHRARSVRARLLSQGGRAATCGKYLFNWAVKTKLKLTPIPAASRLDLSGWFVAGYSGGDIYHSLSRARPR
T2 sequence (P27958 2421-2990, stated change not applied): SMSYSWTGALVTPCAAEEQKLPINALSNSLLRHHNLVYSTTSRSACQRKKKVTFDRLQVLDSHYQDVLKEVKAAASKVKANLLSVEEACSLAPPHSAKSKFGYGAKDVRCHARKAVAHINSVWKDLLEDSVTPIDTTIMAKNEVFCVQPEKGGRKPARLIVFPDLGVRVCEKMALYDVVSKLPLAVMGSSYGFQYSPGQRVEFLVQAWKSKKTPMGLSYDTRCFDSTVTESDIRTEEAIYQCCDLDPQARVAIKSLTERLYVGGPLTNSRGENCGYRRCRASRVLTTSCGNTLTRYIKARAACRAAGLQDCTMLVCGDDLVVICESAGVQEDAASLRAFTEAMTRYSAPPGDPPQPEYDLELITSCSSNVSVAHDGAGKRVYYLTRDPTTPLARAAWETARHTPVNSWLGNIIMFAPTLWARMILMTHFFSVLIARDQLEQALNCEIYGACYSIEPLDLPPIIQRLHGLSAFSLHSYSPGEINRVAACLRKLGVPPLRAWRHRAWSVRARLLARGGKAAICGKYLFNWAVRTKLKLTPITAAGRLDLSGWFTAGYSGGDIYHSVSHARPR

Row | SMILES | IC50 [1] [nM] | EC50 [2] [nM] | EC50 [3] [nM] | IC50 [4] [nM]
1 | COc1c(C#Cc2ccc(NS(C)(=O)=O)cc2C(F)(F)F)cc(N2CCC(=O)NC2=O)cc1C(C)(C)C [IA-L2-1.18, N-(4-((3-tert-butyl-5-(2,4-dioxotetrahydropyrimidin-1(2H)-yl)-2-methoxyphenyl)ethynyl)-3-(trifluoromethyl)phenyl)methanesulfonamide] | < 10 | 10 to 100 | < 10 | < 10
2 | COc1c(C#Cc2ccc(NS(C)(=O)=O)c(C(F)(F)F)c2)cc(N2CCC(=O)NC2=O)cc1C(C)(C)C [IA-L2-1.19, N-(4-((3-tert-butyl-5-(2,4-dioxotetrahydropyrimidin-1(2H)-yl)-2-methoxyphenyl)ethynyl)-2-(trifluoromethyl)phenyl)methanesulfonamide] | 10 to 100 | > 1000 | > 1000 | 100 to 1000
3 | COc1c(C#Cc2cc(F)c(NS(C)(=O)=O)cc2C)cc(N2CCC(=O)NC2=O)cc1C(C)(C)C [IA-L2-1.20, N-(4-((3-tert-butyl-5-(2,4-dioxotetrahydropyrimidin-1(2H)-yl)-2-methoxyphenyl)ethynyl)-2-fluoro-5-methylphenyl)methanesulfonamide] | 10 to 100 | 10 to 100 | < 10 | < 10
4 | COc1c(C#Cc2ccc(NS(C)(=O)=O)c(F)c2Cl)cc(N2CCC(=O)NC2=O)cc1C(C)(C)C [IA-L2-1.21, N-(4-((3-tert-butyl-5-(2,4-dioxotetrahydropyrimidin-1(2H)-yl)-2-methoxyphenyl)ethynyl)-3-chloro-2-fluorophenyl)methanesulfonamide] | 10 to 100 | 10 to 100 | < 10 | < 10
5 | COc1c(C#Cc2cc(F)c(NS(C)(=O)=O)cc2C(F)(F)F)cc(N2CCC(=O)NC2=O)cc1C(C)(C)C [IA-L2-1.22, N-(4-((3-tert-butyl-5-(2,4-dioxotetrahydropyrimidin-1(2H)-yl)-2-methoxyphenyl)ethynyl)-2-fluoro-5-(trifluoromethyl)phenyl)methanesulfonamide] | 10 to 100 | 100 to 1000 | 10 to 100 | 10 to 100
6 | COc1c(C#Cc2ccc(NS(C)(=O)=O)cc2)cc(N2CCC(=O)NC2=O)cc1C1CC1 [IA-L2-1.23, N-(4-((3-cyclopropyl-5-(2,4-dioxotetrahydropyrimidin-1(2H)-yl)-2-methoxyphenyl)ethynyl)phenyl)methanesulfonamide] | 100 to 1000 | > 1000 | 100 to 1000 | 100 to 1000
7 | COc1c(C#Cc2ncc(NS(C)(=O)=O)cc2C)cc(N2CCC(=O)NC2=O)cc1C(C)(C)C [IA-L2-1.24, N-(6-((3-tert-butyl-5-(2,4-dioxotetrahydropyrimidin-1(2H)-yl)-2-methoxyphenyl)ethynyl)-5-methylpyridin-3-yl)methanesulfonamide] | 10 to 100 | 100 to 1000 | 10 to 100 | < 10
8 | COc1c(C#Cc2ccc(NS(C)(=O)=O)cn2)cc(N2CCC(=O)NC2=O)cc1C(C)(C)C [IA-L2-1.25, N-(6-((3-tert-butyl-5-(2,4-dioxotetrahydropyrimidin-1(2H)-yl)-2-methoxyphenyl)ethynyl)pyridin-3-yl)methanesulfonamide] | 10 to 100 | 100 to 1000 | 10 to 100 | < 10
9 | COc1c(C#Cc2ccc(NS(C)(=O)=O)nc2)cc(N2CCC(=O)NC2=O)cc1C(C)(C)C [IA-L2-1.26, N-(5-((3-tert-butyl-5-(2,4-dioxotetrahydropyrimidin-1(2H)-yl)-2-methoxyphenyl)ethynyl)-pyridin-2-yl)methanesulfonamide 2,2,2-trifluoroacetate] | 10 to 100 | 10 to 100 | 10 to 100 | 10 to 100
10 | COc1c(C#Cc2ccc(NS(C)(=O)=O)c3ccccc23)cc(N2CCC(=O)NC2=O)cc1C(C)(C)C [IA-L2-2.1, N-(4-((3-tert-butyl-5-(2,4-dioxotetrahydropyrimidin-1(2H)-yl)-2-methoxyphenyl)ethynyl)-naphthalen-1-yl)methanesulfonamide] | 10 to 100 | 100 to 1000 | 100 to 1000 | 10 to 100
11 | CN(C(=O)c1cc(N2CCC(=O)NC2=O)cc(C(C)(C)C)c1O)c1ccc(NS(C)(=O)=O)cc1 [IA-L3-1.2, 3-tert-butyl-5-(2,4-dioxotetrahydropyrimidin-1(2H)-yl)-2-hydroxy-N-methyl-N-(4-(methyl-sulfonamido)phenyl)benzamide] | 10 to 100 | > 1000 | > 1000 | > 1000
12 | CC(C)(C)c1cc(N2CCC(=O)NC2=O)cc(C(=O)Nc2ccccc2)c1O [IA-L3-1.3, 3-tert-butyl-5-(2,4-dioxotetrahydropyrimidin-1(2H)-yl)-2-hydroxy-N-phenylbenzamide] | 100 to 1000 | > 1000 | > 1000 | > 1000
13 | CN(c1ccc(NC(=O)c2cc(N3CCC(=O)NC3=O)cc(C(C)(C)C)c2O)cc1)S(C)(=O)=O [IA-L3-1.4, 3-tert-butyl-5-(2,4-dioxotetrahydropyrimidin-1(2H)-yl)-2-hydroxy-N-(4-(N-methylmethylsulfonamido)phenyl)benzamide] | 10 to 100 | > 1000 | > 1000 | 100 to 1000
14 | CC(C)(C)c1cc(N2CCC(=O)NC2=O)cc(C(=O)Nc2cccc(NS(C)(=O)=O)c2)c1O [IA-L3-1.5, 3-tert-butyl-5-(2,4-dioxotetrahydropyrimidin-1(2H)-yl)-2-hydroxy-N-(3-(methylsulfonamido)phenyl)benzamide] | 10 to 100 | > 1000 | > 1000 | 100 to 1000
15 | CC(C)(C)c1cc(N2CCC(=O)NC2=O)cc(C(=O)Nc2ccc(NS(C)(=O)=O)cc2)c1O [IA-L3-1.6, 3-tert-butyl-5-(2,4-dioxotetrahydropyrimidin-1(2H)-yl)-2-hydroxy-N-(4-(methylsulfonamido)phenyl)benzamide] | < 10 | 100 to 1000 | 10 to 100 | 10 to 100
16 | CC(C)CS(=O)(=O)Nc1ccc(NC(=O)c2cc(N3CCC(=O)NC3=O)cc(C(C)(C)C)c2O)cc1 [IA-L3-1.7, 3-tert-butyl-5-(2,4-dioxotetrahydropyrimidin-1(2H)-yl)-2-hydroxy-N-(4-(2-methylpropylsulfonamido)phenyl)benzamide] | 10 to 100 | > 1000 | > 1000 | 100 to 1000
17 | COCCS(=O)(=O)Nc1ccc(NC(=O)c2cc(N3CCC(=O)NC3=O)cc(C(C)(C)C)c2O)cc1 [IA-L3-1.8, 3-tert-butyl-5-(2,4-dioxotetrahydropyrimidin-1(2H)-yl)-2-hydroxy-N-(4-(2-methoxyethylsulfonamido)phenyl)benzamide] | 10 to 100 | > 1000 | 100 to 1000 | 10 to 100
18 | CC(C)(C)c1cc(N2CCC(=O)NC2=O)cc(C(=O)Nc2ccc(NS(=O)(=O)CC(F)(F)F)cc2)c1O [IA-L3-1.9, 3-tert-butyl-5-(2,4-dioxotetrahydropyrimidin-1(2H)-yl)-2-hydroxy-N-(4-(2,2,2-trifluoroethylsulfonamido)phenyl)benzamide] | 10 to 100 | > 1000 | > 1000 | 100 to 1000
19 | CC(C)(C)c1cc(N2CCC(=O)NC2=O)cc(C(=O)Nc2ccc(NS(=O)(=O)c3ccccc3)cc2)c1O [IA-L3-1.10, 3-tert-butyl-5-(2,4-dioxotetrahydropyrimidin-1(2H)-yl)-2-hydroxy-N-(4-(phenylsulfon-amido)phenyl)benzamide] | 10 to 100 | 100 to 1000 | 100 to 1000 | 10 to 100
20 | CC(C)(C)c1cc(N2CCC(=O)NC2=O)cc(C(=O)Nc2cccc(CNS(C)(=O)=O)c2)c1O [IA-L3-1.11, 3-tert-butyl-5-(2,4-dioxotetrahydropyrimidin-1(2H)-yl)-2-hydroxy-N-(3-(methylsulfon-amidomethyl)phenyl)benzamide] | 100 to 1000 | > 1000 | > 1000 | > 1000
21 | CC(C)(C)c1cc(N2CCC(=O)NC2=O)cc(C(=O)Nc2ccc(NS(=O)(=O)Cc3ccccc3)cc2)c1O [IA-L3-1.12, 3-tert-butyl-5-(2,4-dioxotetrahydropyrimidin-1(2H)-yl)-2-hydroxy-N-(4-(phenylmethyl-sulfonamido)phenyl)benzamide] | 10 to 100 | > 1000 | > 1000 | 100 to 1000
22 | Cc1noc(C)c1S(=O)(=O)Nc1ccc(NC(=O)c2cc(N3CCC(=O)NC3=O)cc(C(C)(C)C)c2O)cc1 [IA-L3-1.13, 3-tert-butyl-N-(4-(3,5-dimethylisoxazole-4-sulfonamido)phenyl)-5-(2,4-dioxotetrahydro-pyrimidin-1(2H)-yl)-2-hydroxybenzamide] | < 10 | > 1000 | > 1000 | 100 to 1000
23 | CC(C)(C)c1cc(N2CCC(=O)NC2=O)cc(C(=O)Nc2ccc(CC(=O)O)cc2)c1O [IA-L3-1.15, 2-(4-(3-tert-butyl-5-(2,4-dioxotetrahydropyrimidin-1(2H)-yl)-2-hydroxybenzamido)phenyl)-acetic acid] | 100 to 1000 | > 1000 | > 1000 | > 1000
